# Source: US6461997B1, “Triazole sulfones having herbicidal activity” (Monsanto Technology LLC, priority 1999, dated 2002)
# Columns and labels:
# KCHSC (kochia) = assay: Pre-emergence herbicidal activity, cool season; type: in vivo, Kochia scoparia; settings: lowest tested rate with 80% or greater inhibition; rates 300, 100, 30, 10 g/ha; about 14 days
# Method: (§1) Tables 5 to 8 summarize results of tests conducted as described below to determine the pre-emergence herbicidal activity, in the form of a GR80 value, of illustrative compounds of this invention. […] Compounds of the invention were typically applied at rates of 300, 100, 30, and 10 g/ha. Where herbicidal activity was evident but 80% inhibition was not achieved at the highest rate tested, an asterisk (*) is shown in the following tables.
# (§2) The pre-emergence tests were conducted by the following procedure. Topsoil was sieved to pass through a 1.27 cm screen. Fertilizer was added to the topsoil and the mixture was then sterilized by heating. The topsoil mixture was placed in a pot and compacted to a depth of 1.0 to 1.25 cm from the top of the pot. Seeds of each of several monocotyledonous and dicotyledonous annual plant species were placed on top of the soil. Additional soil was subsequently placed over the seeds to level-fill the pot. A known amount of each test compound dissolved or suspended in an appropriate organic solvent was diluted with a 50:50 mix of acetone and water and applied to the surface of the soil. After treatment the plants were placed in a greenhouse where they received 0.64 cm of overhead irrigation. All subsequent watering consisted of a light overhead mist and/or subirrigation as needed for germination and growth. Tables 5 and 6 below relate to warm season plant species which were placed after pre-emergence treatment in a greenhouse with a 30/21° C. day/night temperature regime. Tables 7 and 8 below relates to cool season plant species placed after pre-emergence treatment in a greenhouse or growth chamber with an 18/13° C. day/night temperature regime.
# (§3) Approximately 14 days after planting and treating, the plants were observed and herbicidal efficacy recorded as percent inhibition by comparison with untreated plants.
# (§4) The plant species usually regarded as weeds which were utilized in the tests are identified in the tables below according to the following legend, in which “d” indicates a dicotyledonous species and “m” a monocotyledonous species. All monocotyledonous species included in the tests herein are grasses.
# [1] = system: LAMPU (purple deadnettle); assay: Pre-emergence herbicidal activity, cool season; type: in vivo, Lamium purpureum; settings: lowest tested rate with 80% or greater inhibition; rates 300, 100, 30, 10 g/ha; about 14 days
# How it was run: (§5)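 Seeds sown in sterilised fertilised topsoil received surface-applied compound in 50:50 acetone/water, typically at 300, 100, 30 and 10 g/ha, then greenhouse-grown at 30/21° C (warm-season species) or 18/13° C (cool-season species). Percent inhibition versus untreated plants was scored at about 14 days, giving GR80; an asterisk marks activity short of 80% at the top rate.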
# SOLNI (black nightshade) = assay: Pre-emergence herbicidal activity, warm season; type: in vivo, Solanum nigrum; settings: GR80 = lowest tested rate (300, 100, 30, 10 g/ha) with 80% or greater inhibition; approx. 14 days after treating; 30/21° C.
# How it was run: as §5
# ALOMY (blackgrass) = assay: Pre-emergence herbicidal activity, cool season; type: in vivo, Alopecurus myosuroides; settings: GR80 = lowest tested rate (300, 100, 30, 10 g/ha) with 80% or greater inhibition; approx. 14 days after treating; 18/13° C.
# How it was run: as §5
# STEME (common chickweed) = assay: Pre-emergence herbicidal activity, cool season; type: in vivo, Stellaria media; settings: lowest tested rate with 80% or greater inhibition; rates 300, 100, 30, 10 g/ha; about 14 days
# How it was run: as §5
# SINAR (wild mustard) = assay: Pre-emergence herbicidal activity, cool season; type: in vivo, Sinapis arvensis; settings: lowest tested rate with 80% or greater inhibition; rates 300, 100, 30, 10 g/ha; about 14 days
# How it was run: as §5
# SETFA (giant foxtail) = assay: Pre-emergence herbicidal activity, warm season; type: in vivo, Setaria faberi; settings: GR80 = lowest tested rate (300, 100, 30, 10 g/ha) with 80% or greater inhibition; approx. 14 days after treating; 30/21° C.
# How it was run: as §5
# [2] = system: VERPE (creeping speedwell); assay: Pre-emergence herbicidal activity, cool season; type: in vivo, Veronica persicaria; settings: lowest tested rate with 80% or greater inhibition; rates 300, 100, 30, 10 g/ha; about 14 days
# How it was run: as §5
# [3] = system: SORHA (johnsongrass (seedling)); assay: Pre-emergence herbicidal activity, warm season; type: in vivo, Sorghum halepense; settings: GR80 = lowest tested rate (300, 100, 30, 10 g/ha) with 80% or greater inhibition; approx. 14 days after treating; 30/21° C.
# How it was run: as §5
# [4] = system: BRAPP (broadleaf signalgrass); assay: Pre-emergence herbicidal activity, warm season; type: in vivo, Brachiaria platyphylla; settings: GR80 = lowest tested rate (300, 100, 30, 10 g/ha) with 80% or greater inhibition; approx. 14 days after treating; 30/21° C.
# How it was run: as §5
# [5] = system: CIRAR (canada thistle (seedling)); assay: Pre-emergence herbicidal activity, warm season; type: in vivo, Cirsium arvense; settings: GR80 = lowest tested rate (300, 100, 30, 10 g/ha) with 80% or greater inhibition; approx. 14 days after treating; 30/21° C.
# How it was run: as §5
# AMARE (redroot pigweed) = assay: Pre-emergence herbicidal activity, warm season; type: in vivo, Amaranthus retroflexus; settings: GR80 = lowest tested rate (300, 100, 30, 10 g/ha) with 80% or greater inhibition; approx. 14 days after treating; 30/21° C.
# How it was run: as §5
# POLCO (wild buckwheat) = assay: Pre-emergence herbicidal activity, cool season; type: in vivo, Polygonum convolvulus; settings: lowest tested rate with 80% or greater inhibition; rates 300, 100, 30, 10 g/ha; about 14 days
# How it was run: as §5
# [6] = system: PANMI (wild proso millet); assay: Pre-emergence herbicidal activity, warm season; type: in vivo, Panicum miliaceum; settings: GR80 = lowest tested rate (300, 100, 30, 10 g/ha) with 80% or greater inhibition; approx. 14 days after treating; 30/21° C.
# How it was run: as §5
# [7] = system: GALAP (catchweed bedstraw); assay: Pre-emergence herbicidal activity, cool season; type: in vivo, Galium aparine; settings: lowest tested rate with 80% or greater inhibition; rates 300, 100, 30, 10 g/ha; about 14 days
# How it was run: as §5
# SETVI (green foxtail) = assay: Pre-emergence herbicidal activity, cool season; type: in vivo, Setaria viridis; settings: GR80 = lowest tested rate (300, 100, 30, 10 g/ha) with 80% or greater inhibition; approx. 14 days after treating; 18/13° C.
# How it was run: as §5
# ECHCG (barnyardgrass) = assay: Pre-emergence herbicidal activity, warm season; type: in vivo, Echinochloa crus-galli; settings: GR80 = lowest tested rate (300, 100, 30, 10 g/ha) with 80% or greater inhibition; approx. 14 days after treating; 30/21° C.
# How it was run: as §5
# [8] = system: AGRRE (quackgrass (seedling)); assay: Pre-emergence herbicidal activity, cool season; type: in vivo, Elymus repens; settings: GR80 = lowest tested rate (300, 100, 30, 10 g/ha) with 80% or greater inhibition; approx. 14 days after treating; 18/13° C.
# Method: as §1, §2, §3, §4
# SASKR (russian thistle) = assay: Pre-emergence herbicidal activity, cool season; type: in vivo, Salsola kali; settings: lowest tested rate with 80% or greater inhibition; rates 300, 100, 30, 10 g/ha; about 14 days
# How it was run: as §5
# DIGSA (large crabgrass) = assay: Pre-emergence herbicidal activity, warm season; type: in vivo, Digitaria sanguinalis; settings: GR80 = lowest tested rate (300, 100, 30, 10 g/ha) with 80% or greater inhibition; approx. 14 days after treating; 30/21° C.
# How it was run: as §5
# [9] = system: CHEAL (common lambsquarters); assay: Pre-emergence herbicidal activity, warm season; type: in vivo, Chenopodium album; settings: GR80 = lowest tested rate (300, 100, 30, 10 g/ha) with 80% or greater inhibition; approx. 14 days after treating; 30/21° C.
# How it was run: as §5
# [10] = system: AGSST (creeping bentgrass); assay: Pre-emergence herbicidal activity, cool season; type: in vivo, Agrostis stolonifera; settings: GR80 = lowest tested rate (300, 100, 30, 10 g/ha) with 80% or greater inhibition; approx. 14 days after treating; 18/13° C.
# How it was run: as §5
# PANDI (fall panicum) = assay: Pre-emergence herbicidal activity, warm season; type: in vivo, Panicum dichotomiflorum; settings: GR80 = lowest tested rate (300, 100, 30, 10 g/ha) with 80% or greater inhibition; approx. 14 days after treating; 30/21° C.
# How it was run: as §5
# DATST (jimsonweed) = assay: Pre-emergence herbicidal activity, warm season; type: in vivo, Datura stramonium; settings: GR80 = lowest tested rate (300, 100, 30, 10 g/ha) with 80% or greater inhibition; approx. 14 days after treating; 30/21° C.
# Method: as §1, §2, §3, §4
Structure (SMILES),"Pre-emergence activity GR80, KCHSC (KCHSC (kochia))","Pre-emergence activity GR80, LAMPU [1]",Pre-emergence activity (GR80) ALOMY (ALOMY (blackgrass)),"Pre-emergence activity GR80, STEME (STEME (common chickweed))","Pre-emergence activity GR80, SINAR (SINAR (wild mustard))",Pre-emergence activity (GR80) SETFA (SETFA (giant foxtail)) [g/ha],"Pre-emergence activity GR80, VERPE [2]",Pre-emergence activity (GR80) SORHA [3] [g/ha],Pre-emergence activity (GR80) BRAPP [4] [g/ha],Pre-emergence activity (GR80) AMARE (AMARE (redroot pigweed)) [g/ha],"Pre-emergence activity GR80, POLCO (POLCO (wild buckwheat))",Pre-emergence activity (GR80) PANMI [6] [g/ha],"Pre-emergence activity GR80, GALAP [7]",Pre-emergence activity (GR80) ECHCG (ECHCG (barnyardgrass)) [g/ha],Pre-emergence activity (GR80) AGRRE [8],"Pre-emergence activity GR80, SASKR (SASKR (russian thistle))",Pre-emergence activity (GR80) DIGSA (DIGSA (large crabgrass)) [g/ha],Pre-emergence activity (GR80) CHEAL [9] [g/ha],Pre-emergence activity (GR80) AGSST [10] [g/ha],also measured
CCN(CC)C(=O)n1cnc(S(=O)(=O)C(F)(F)c2ccccc2)n1 [Example 5],[empty],[empty],"* (activity observed, at least at highest rate, but <80% inhibition)",[empty],100 g/ha,100,100 g/ha,100,300,100,[empty],100,[empty],300,"* (activity observed, at least at highest rate, but <80% inhibition)",300 g/ha,100,300,30,Pre-emergence activity (GR80) SOLNI (SOLNI (black nightshade)): 300 g/ha; Pre-emergence activity (GR80) CIRAR [5]: 100 g/ha; Pre-emergence activity (GR80) SETVI (SETVI (green foxtail)): 100 g/ha
CCOC(=O)C(F)(F)S(=O)(=O)c1ncn(C(=O)N(CC)CC)n1 [Example 7],[empty],[empty],"* (activity observed, at least at highest rate, but <80% inhibition)",30 g/ha,"* (activity observed, at least at highest rate, but <80% inhibition)",300,[empty],300,300,300,[empty],300,[empty],300,300 g/ha,[empty],300,300,300,Pre-emergence activity (GR80) PANDI (PANDI (fall panicum)): 300 g/ha; Pre-emergence activity (GR80) DATST (DATST (jimsonweed)): 300 g/ha
